The target of the assay is T1, HGFR (Homo sapiens, UniProt P08581).
T1 construct: purchased Upstate 14-526
The assay can be described thus: HGFR continuous-coupled spectrophotometric assay. It is filed as biochemical. The settings on record: for inhibition at 0.05 µM: Table 5, percent c-MET inhibition at 50 nM; for inhibition at 1 µM: Table 6, percent c-MET inhibition at 1 μM, read-out: % inhibition.

Data on 57 compounds can be found in patent US8106197B2, “Aminoheteroaryl compounds as protein kinase inhibitors” (Pfizer Inc., priority 2003, dated 2012).

T1 sequence (P08581 974-1390 limits assumed): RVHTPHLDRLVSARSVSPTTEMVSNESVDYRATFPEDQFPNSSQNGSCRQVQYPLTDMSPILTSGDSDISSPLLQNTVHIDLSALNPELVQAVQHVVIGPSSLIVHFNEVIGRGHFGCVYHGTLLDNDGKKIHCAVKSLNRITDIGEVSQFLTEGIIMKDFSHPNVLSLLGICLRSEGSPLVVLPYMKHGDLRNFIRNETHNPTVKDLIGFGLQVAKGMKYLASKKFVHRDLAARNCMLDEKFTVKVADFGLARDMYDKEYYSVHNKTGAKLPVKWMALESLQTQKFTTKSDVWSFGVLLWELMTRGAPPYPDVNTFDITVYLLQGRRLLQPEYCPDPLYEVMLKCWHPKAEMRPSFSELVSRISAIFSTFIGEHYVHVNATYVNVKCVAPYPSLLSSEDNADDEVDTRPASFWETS

`CC(Oc1cc(-c2ccc(C(=O)N3CCCC(C(N)=O)C3)cc2)cnc1N)c1c(Cl)ccc(F)c1Cl` (stereo not drawn): the inhibition at 0.05 µM worked out at 84%. Still for that read-out and setting: the result for `CC(Oc1cc(-c2ccc(C(=O)N[C@H](CO)c3ccccc3)cc2)cnc1N)c1c(Cl)ccc(F)c1Cl` (stereo partly drawn) reads 69%.

As to `CC(Oc1cc(-c2ccc(C(=O)N3CCCC(O)C3)cc2)cnc1N)c1c(Cl)ccc(F)c1Cl` (stereo not drawn), testing at 0.05 µM gave an inhibition of 85%. With `CC(Cc1ccc(Cl)cc1)NC(=O)c1ccc(-c2cnc(N)c(OC(C)c3c(Cl)ccc(F)c3Cl)c2)cc1` (stereo not drawn), the inhibition at 0.05 µM turned out to be 58%. Same read-out and setting: the result for `CC(Oc1cc(-c2ccc(C(=O)N[C@H]3C[C@@H]3c3ccccc3)cc2)cnc1N)c1c(Cl)ccc(F)c1Cl` (stereo partly drawn) reads 65%; that for `CC(Oc1cc(-c2ccc(C(=O)N[C@H](CO)C(C)C)cc2)cnc1N)c1c(Cl)ccc(F)c1Cl` (stereo partly drawn), 74%.

Regarding `CC(Oc1cc(-c2ccc(C(=O)NC[C@@H]3CCCC[C@H]3O)cc2)cnc1N)c1c(Cl)ccc(F)c1Cl` (stereo partly drawn), the inhibition at 0.05 µM was 67%. On the same count and under the same terms, under `CC(Oc1cc(-c2ccc(C(=O)N3CCNC(=O)C3C)cc2)cnc1N)c1c(Cl)ccc(F)c1Cl` (stereo not drawn) stands 86%. The same measure, in the same setting: under `CC(Oc1cc(-c2ccc(C(=O)NC[C@H](O)c3ccccc3)cc2)cnc1N)c1c(Cl)ccc(F)c1Cl` (stereo partly drawn) stands 69%; under `CC(Oc1cc(-c2ccc(C(=O)NC(CO)C(C)C)cc2)cnc1N)c1c(Cl)ccc(F)c1Cl` (stereo not drawn), 65%; under `CC(Oc1cc(-c2ccc(C(=O)NC[C@H]3CCCO3)cc2)cnc1N)c1c(Cl)ccc(F)c1Cl` (stereo partly drawn), 60%. Same read-out and setting: the result for `CCC(CO)NC(=O)c1ccc(-c2cnc(N)c(OC(C)c3c(Cl)ccc(F)c3Cl)c2)cc1` (stereo not drawn) reads 73%; that for `CC(O)CCNC(=O)c1ccc(-c2cnc(N)c(OC(C)c3c(Cl)ccc(F)c3Cl)c2)cc1` (stereo not drawn), 77%.

In turn, `CC(Oc1cc(-c2ccc(C(=O)NC[C@@H](C)O)cc2)cnc1N)c1c(Cl)ccc(F)c1Cl` (stereo partly drawn) had an inhibition at 0.05 µM of 79%. Same read-out and setting: the result for `COC(=O)C(CO)NC(=O)c1ccc(-c2cnc(N)c(OC(C)c3c(Cl)ccc(F)c3Cl)c2)cc1` (stereo not drawn) reads 81%; that for `CCC1CCCCN1C(=O)c1ccc(-c2cnc(N)c(OC(C)c3c(Cl)ccc(F)c3Cl)c2)cc1` (stereo not drawn), 56%.

Turning to `CCC(COC)NC(=O)c1ccc(-c2cnc(N)c(OC(C)c3c(Cl)ccc(F)c3Cl)c2)cc1` (stereo not drawn), the inhibition at 0.05 µM turned out to be 59%. Still for that read-out and setting: the result for `CC(Oc1cc(-c2ccc(C(=O)NC(C)C(O)c3ccccc3)cc2)cnc1N)c1c(Cl)ccc(F)c1Cl` (stereo not drawn) reads 69%. Still for that read-out and setting: the result for `CC(NC(=O)c1ccc(-c2cnc(N)c(OC(C)c3c(Cl)ccc(F)c3Cl)c2)cc1)c1ccc(F)cc1` (stereo not drawn) reads 56%; that for `CCC(C)NC(=O)c1ccc(-c2cnc(N)c(OC(C)c3c(Cl)ccc(F)c3Cl)c2)cc1` (stereo not drawn), 64%; that for `CC1CCCN(C(=O)c2ccc(-c3cnc(N)c(OC(C)c4c(Cl)ccc(F)c4Cl)c3)cc2)C1` (stereo not drawn), 65%. The same measure, in the same setting: the result for `CC(Oc1cc(-c2ccc(C(=O)NCC(c3ccc[nH]3)C(F)(F)F)cc2)cnc1N)c1c(Cl)ccc(F)c1Cl` (stereo not drawn) reads 70%; that for `CC(Oc1cc(-c2ccc(C(=O)N3CCCCC3COc3ccccc3)cc2)cnc1N)c1c(Cl)ccc(F)c1Cl` (stereo not drawn), 53%. With `CC(Oc1cc(-c2ccc(C(=O)N3CCN(CCC#N)CC3)cc2)cnc1N)c1c(Cl)ccc(F)c1Cl` (stereo not drawn), the inhibition at 0.05 µM stood at 77%. The same measure, in the same setting: under `CC(Oc1cc(-c2ccc(C(=O)N3CCC(Cc4ccccc4)C3)cc2)cnc1N)c1c(Cl)ccc(F)c1Cl` (stereo not drawn) stands 59%; under `CC(Oc1cc(-c2ccc(C(=O)N[C@H]3CC[C@H](CO)CC3)cc2)cnc1N)c1c(Cl)ccc(F)c1Cl` (stereo partly drawn), 68%.

`Cc1noc([C@H]2CC[C@H](CNC(=O)c3ccc(-c4cnc(N)c(OC(C)c5c(Cl)ccc(F)c5Cl)c4)cc3)CC2)n1` (stereo partly drawn) registered an inhibition at 0.05 µM of 51%. With `CN1CCN(CCCNC(=O)c2cnc(N)c(OCc3c(Cl)cccc3Cl)c2)CC1`, the inhibition at 1 µM was 24%. The same measure, in the same setting: the result for `Nc1ncc(C(=O)NCCCO)cc1OCc1c(Cl)cccc1Cl` reads 26%; that for `Nc1ncc(C(=O)NCCN2CCOCC2)cc1OCc1c(Cl)cccc1Cl`, 31%; that for `COc1ccc(C(NC(=O)c2cnc(N)c(OCc3c(Cl)cccc3Cl)c2)C2CC2)cc1` (stereo not drawn), 27%. The same measure, in the same setting: the result for `Nc1ncc(C(=O)N2CCN(CCCO)CC2)cc1OCc1c(Cl)cccc1Cl` reads 31%; that for `CC(C)(CO)CNC(=O)c1cnc(N)c(OCc2c(Cl)cccc2Cl)c1`, 39%; that for `Nc1ncc(C(=O)N2CCN(CC(=O)N3CCOCC3)CC2)cc1OCc1c(Cl)cccc1Cl`, 31%. For the compound `Nc1ncc(C(=O)NCCc2c[nH]c3ccc(Cl)cc23)cc1OCc1c(Cl)cccc1Cl`, the inhibition at 1 µM was 36%. Same read-out and setting: under `CC(=O)N(C)C1CCN(C(=O)c2cnc(N)c(OCc3c(Cl)cccc3Cl)c2)C1` (stereo not drawn) stands 31%; under `CC(O)CNC(=O)c1cnc(N)c(OCc2c(Cl)cccc2Cl)c1` (stereo not drawn), 49%.

As to `Cc1cnc(CNC(=O)c2cnc(N)c(OCc3c(Cl)cccc3Cl)c2)cn1`, the inhibition at 1 µM was determined as 33%.

Consider `NC(=O)C1CCN(C(=O)c2cnc(N)c(OCc3c(Cl)cccc3Cl)c2)CC1`, for which the inhibition at 1 µM is 29%. Still for that read-out and setting: the result for `Nc1ncc(C(=O)NCCCN2CCCC2=O)cc1OCc1c(Cl)cccc1Cl` reads 34%; that for `CC(CCCC(C)(C)O)NC(=O)c1cnc(N)c(OCc2c(Cl)cccc2Cl)c1` (stereo not drawn), 35%; that for `Nc1ncc(C(=O)NCCc2ccc(O)cc2)cc1OCc1c(Cl)cccc1Cl`, 34%. Same read-out and setting: under `Nc1ncc(C(=O)NCc2ccc(F)cc2)cc1OCc1c(Cl)cccc1Cl` stands 32%.

As to `CN(C)CCNC(=O)c1cnc(N)c(OCc2c(Cl)cccc2Cl)c1`, the inhibition at 1 µM worked out at 29%.

For the compound `CC(C)CCNC(=O)c1cnc(N)c(OCc2c(Cl)cccc2Cl)c1`, the inhibition at 1 µM was determined as 26%.

For `Nc1ncc(C(=O)NCCc2c[nH]c3ccc(O)cc23)cc1OCc1c(Cl)cccc1Cl`, the inhibition at 1 µM stood at 29%. On the same count and under the same terms, under `Nc1ncc(C(=O)NCC(F)(F)F)cc1OCc1c(Cl)cccc1Cl` stands 30%. In the case of `CN1CCC(N(C)C(=O)c2cnc(N)c(OCc3c(Cl)cccc3Cl)c2)C1` (stereo not drawn), the inhibition at 1 µM came out at 33%. The same measure, in the same setting: the result for `Nc1ncc(C(=O)NCc2ccc(OC(F)(F)F)cc2)cc1OCc1c(Cl)cccc1Cl` reads 24%; that for `Nc1ncc(C(=O)N2CCC(O)C2)cc1OCc1c(Cl)cccc1Cl` (stereo not drawn), 83%. Regarding `Nc1ncc(C(=O)NC[C@H]2CCCC[C@H]2O)cc1OCc1c(Cl)cccc1Cl`, the inhibition at 1 µM came out at 24%. For `Nc1ncc(C(=O)N[C@@H]2CCCC[C@H]2CO)cc1OCc1c(Cl)cccc1Cl`, the inhibition at 1 µM was 24%.

Take `Nc1ncc(C(=O)N[C@@H]2c3ccccc3C[C@@H]2O)cc1OCc1c(Cl)cccc1Cl`: the inhibition at 1 µM was determined as 23%. With `Nc1ncc(C(=O)N2CCC(O)(Cc3ccccc3)CC2)cc1OCc1c(Cl)cccc1Cl`, the inhibition at 1 µM came out at 62%. The same measure, in the same setting: the result for `COc1cc(CCNC(=O)c2cnc(N)c(OCc3c(Cl)cccc3Cl)c2)ccc1O` reads 32%; that for `Nc1ncc(C(=O)NCC2COc3ccccc3O2)cc1OCc1c(Cl)cccc1Cl` (stereo not drawn), 34%; that for `CC(NC(=O)c1cnc(N)c(OCc2c(Cl)cccc2Cl)c1)c1ccc(O)cc1` (stereo not drawn), 36%.
